One data set concerns mice. The experiment in a line: Dose escalation experiments in mice. It counts as in vivo, mouse. The text has this: In particular, certain embodiments of the oxetane-substituted compounds (e.g., MMS350) are radiation protector/mitigators that are water soluble, and easily administered (e.g., orally administered to a subject). […] Furthermore, MnSOD-PL is relatively ineffective when delivered weeks-months after irradiation, at the time that fibrosis is forming, and appears to be only effective when delivered prior to irradiation. In contrast, MMS350 as shown in the data reported herein, has high effectiveness when delivered months after irradiation and at the time of initiation of radiation fibrosis in the lung.

The test system of data set [1] is C57BL/6NTac mice, 9.5 Gy total body irradiation. The experiment in a line: Total body irradiation survival (hematopoietic syndrome). It is filed as in vivo, mouse. As to the method:
FIG. 13 is a graph of percent survival versus day, illustrating the in vivo mitigation of total body irradiation by MMS350. MMS350 was dissolved in water at a concentration of 2 mg/ml. C57BL/6NTac mice (n=15/group) were irradiated to 9.5 Gy total body irradiation and injected intraperitoneally with 10 mg/kg of MMS350 at 4 or 24 hours after irradiation. The mice were followed for the development of the hematopoietic syndrome at which time the mice were sacrificed.
Mice were irradiated using JL Shepherd Mark 1 Model 68 irradiator to 9.25 total body irradiation dose or a Varian Linear Accelerator (Varian Medical Systems, Inc, Palo Alto, Calif.) to 20 Gy for pulmonary irradiation according to published methods (2, 10, 13).
(§1) Mice were injected intra-peritoneally with MMS350 or JP4-039 (GS-nitroxide) in 50% cremphor/50% ethanol according to published methods. For long-term administration of MMS350, the drug was administered in water bottles with bottles changed every 7 days. The dose of drug per bottle was 100 μM MMS350 starting on day 88. The estimated total amount consumed by each animal daily was 10.9 μg based on a mouse drinking 5 ml of water per day. Chimeric mice irradiated to the thoracic cavity were placed 30 days later on MMS350 in water containing 100 mM MMS350. On day 88 after thoracic irradiation of non-chimeric mice, mice were placed on […] MMS350 in drinking water.

Data set [2] relates to C57BL/6NTac mice, 20 Gy thoracic irradiation. Briefly: Radiation pulmonary fibrosis after 20 Gy thoracic irradiation. It counts as in vivo, mouse. The settings on record: MMS350 in drinking water.
From the text: For lung irradiation, mice were irradiated to the thoracic cavity with shielding of the head and neck region and abdomen and lower body according to published methods. Animals received 20 Gy single fraction thoracic irradiation and were then maintained according to IACUC directed laboratory conditions. Mice were sacrificed at serial time points after thoracic irradiation including pre-irradiation, days 2, 7, 14, 28, 50, 75, 100, 110, 150 and 200 post-irradiation. Lungs were removed and sagittal sections assayed for percent of lung replaced by fibroblasts and organizing alveolitis according to published methods. Representative lung lobes from the same animals were tested by RT-PCR for level of detectable message for inflammatory cytokines, redox sensitive promoters, and levels of MnSOD.
Lungs from irradiated and luc+ cell line injected mice were removed and serial sectioned. Sections were stained for luc+, GFP+ cells, BrdU incorporation, and for quantitation of percent lung replaced by fibrosis (organizing alveolitis) according to published methods.
as §1

Data set [3] has as its system bone marrow stromal cell line derived from C57BL/6NTac mice. The experiment in a line: In vitro clonogenic radiation survival curves. It is filed as cell-based, mouse. Conditions: 0 to 8 Gy. How it is done: FIG. 12A is a graph of surviving fraction versus radiation dose, illustrating the in vitro radioprotection and mitigation of bone marrow stromal cells. In vitro survival curves were performed using a bone marrow stromal cell line derived from C57BL/6NTac mice. Cells were incubated in 100 μM MMS350 for one hour before irradiation or was added to the cells 10 min after irradiation. Cells were irradiated to doses ranging from 0 to 8 Gy, plated in 4 well tissue culture plates, incubated for 7 days at 37° C. in a humidified CO2 incubator, and stained with crystal violet. Colonies of greater than 50 cells were counted and analyzed using a linear quadratic model or single-hit, multi-target model.
The murine C57BL/6 bone marrow stromal cell line (Epperly M W, Sikora C A, Defilippi S, Gretton J E, Greenberger J S. Bone marrow origin of myofibroblasts in irradiation pulmonary fibrosis. Am J Resp Molecular Cell Biology 2003; 29:213-224) and its use in clonogenic radiation survival curves has been described (Epperly M W, Gretton J E, Bernarding M, Nie S, Rasul B, Greenberger J S. Mitochondrial localization of copper/zinc superoxide dismutase (Cu/ZnSOD) confers radioprotective functions in vitro and in vivo. Radiation Research 2003; 160:568-578).
Cell lines were irradiated at dose rate of 70 cGy per minute using a Cesium Gamma Cell Irradiator according to published methods. […]

Here are results for one compound from patent publication US10251860B2, “Compounds for bone healing” (University of Pittsburgh—Of the Commonwealth System of …, priority 2015, dated 2019).

Each structure is given as a SMILES string. “Also recorded” adds a separate entry of the source.

Consider `CC1(C[S+]([O-])CC2(C)COC2)COC1` [Compound 3, 3,3′-Sulfinylbis(methylene)bis(3-methyloxetane)], for which the toxic dose result in the data set with mice was “a toxic dose has not yet been reached”. The survival result in data set [1] (9.5 Gy TBI, 10 mg/kg intraperitoneally 4 hours after irradiation, p=0.0092) is “significantly increased survival”; in data set [1] (9.5 Gy TBI, 10 mg/kg intraperitoneally 24 hours after irradiation, p=0.0097), “significantly increased survival”; in data set [1] (single dose 24 hours after 9.5 Gy TBI, C57BL/6/HNsd mice) it was “significant improvement in survival”; in data set [2] (20 Gy thoracic irradiated mice) it was “significantly increased survival”. Also, in data set [1] (intraperitoneal injection before or after 9.5 Gy TBI, C57BL/6 mice, n=15/group), the “protection and mitigation against total body irradiation” value is “both a protector when delivered prior to irradiation and mitigator when delivered after irradiation comparable to JP4-039”. The pulmonary fibrosis entry in data set [2] (20 Gy thoracic irradiation) is given as “decreased radiation pulmonary fibrosis; also recorded: significant decrease in pulmonary fibrosis”. Moreover, the “Percent Pulmonary Fibrosis” value in data set [2] (thoracic-irradiated mice, −MMS350 20.8 ± 3.9, p < 0.0001) is reported as 3.6 ± 1.1%. In data set [3] (100 μM MMS350 added 10 min after irradiation, control 1.9±0.1, p=0.0444), this compound yielded a D0 of 2.4±0.3. The “shoulder on the survival curve (ñ)” value in data set [3] (100 μM MMS350 for one hour before irradiation, control 5.8±1.1, p=0.0039) was 14.9±2.9.
